Results on eleven compounds are retold here after patent publication US8735556B2, “Sensitive and generic antibodies and multiple applications” (Randox Laboratories Limited, priority 2011, dated 2014).

For data set [1], the system named is antiserum raised to Immunogen II. The experiment in a line: Competitive ELISA, antibody characterisation. The format is binding, sheep. The following applies: for % Cross-reactivity: CR based on 100% for carbamazepine, IC50 carbamazepine/IC50 CR x 100; for IC50: antiserum raised to Immunogen II, detecting agent derived from Hapten-A, competitive assay format. The protocol: The antibody titre is evaluated by coating a microtitre plate (Thermo Fisher Scientific NUNC, 468667) with antibody (125 μl/well) in coating buffer (10 mM Tris pH 8.5) at 37° C. for 2 hours. The plate is then washed 4 times over 10 minutes with working strength TBST. 50 μl of sample/standard (Carbamazepine, Sigma C4024) is added to the appropriate wells in triplicate, followed by 75 μl of hapten-HRP conjugate and incubated at 25° C. for 1 hour. The plate is then washed and 125 μl of TMB (Randox, 4380-15) added to each well and left at room temperature for 20 mins in the dark. The reaction is stopped using 125 μl of 0.2M sulphuric acid. The absorbances are read at 450 nm with an ELISA microplate reader (BIO-TEK Instruments, Elx800) and the means calculated. Antibody sensitivity can then be determined. […] The immunogenic mixture (1 ml) was administered to adult sheep on a monthly basis to provide target-specific polyclonal antisera. IgG was extracted from the antisera via caprylic acid/ammonium sulphate precipitation of immunoglobulin. A microtitre plate (Thermo Fisher Scientific NUNC, 468667) was coated with antibody (125 μl/well) in coating buffer (10 mM Tris pH 8.5) at 37° C. for 2 hours. […] The plate was then washed and 125 μl of TMB (Randox, 4380-15) was added to each well and left at room temperature for 20 mins in the dark. The reaction was stopped using 125 μl of 0.2M sulphuric acid. The absorbances were read at 450 nm with an ELISA microplate reader (BIO-TEK Instruments, Elx800) and the means calculated. Antibody specificity and sensitivity were then determined. […] The results of this study are presented in Table 2, cross-reactivity being calculated according to the following formula: % CR=IC50. carbamazepine/IC50. CR×100 […] CR is the concentration of carbamazepine/metabolites/structurally-related molecules that causes 50% displacement of signal.
On the technique in general: In an ELISA, binding on a coated surface is turned into a signal by an enzyme label.

For data set [2] the following is noted: cited from earlier work.
Data set [3] relates to monoclonal antibody of CBZ immunoassay. The following applies: cited from earlier work.
The test system of data set [4] is Siemens ADVIA carbamazepine immunoassay. The following applies: cited from earlier work.
For data set [5], the system named is Beckman Coulter (BC) carbamazepine immunoassay. The following applies: Beckman Coulter BC analyzers; cited from earlier work.
The conditions of data set [6]: cited from earlier work. This is another data set of the same source.
The test system of data set [7] is Abbott Diagnostics Axsym carbamazepine immunoassay. The following applies: cited from earlier work.
The subject of data set [8] is Roche Diagnostics Online TDM carbamazepine immunoassay. The following applies: at 6 μg/ml of carbamazepine; cited from earlier work.

Converted amounts (≈) assume the structure as drawn. Like-named read-outs stand apart in the source and are kept apart here.

Usually IC50 stands for the concentration that gives 50% inhibition. Low values mean greater potency, high ones weaker potency. In the case of `NC(=O)N1c2ccccc2C(O)C(O)c2ccccc21` (centres unmarked) [10,11-diOH-CBZ, 10,11-dihydro-10,11-dihydroxycarbamazepine], in data set [1], the “% Cross-reactivity” value came out at 14.00% and the IC50 was determined as 15.269 ng/mL (≈ 0.0565 µM). For the same compound, in data set [2] (of CBZ, urine), the “major urinary excretory product” value was 80%. Besides, the Cross-reactivity entry in data set [3] is reported as “negligible”.
Take `CN(C)CCC=C1c2ccccc2CCc2ccccc21` [Amitriptyline, amitriptyline]: in data set [1], the “% Cross-reactivity” value is listed as <<1.10% and the IC50 is on record as >>200 ng/ml. In addition, the Cross-reactivity in data set [4] was 5.2%. The Cross-reactivity in data set [5] is 18.6%.
The term half-life denotes the time needed for the level to fall by half in the phase considered. Consider `NC(=O)N1c2ccccc2C=Cc2ccccc21` [CBZ, carbamazepine], for which, in data set [1], the “% Cross-reactivity” value is on record as 100.00%. Besides, the IC50 in data set [1] worked out at 2.135 ng/mL (≈ 0.00904 µM). Moreover, the half-life in data set [2] (in patients) is 18 to 65 h. For the same compound, the toxic value in data set [6] (free carbamazepine) is greater than 4.00 µg/mL; in data set [6] (total carbamazepine) it was “greater than 12.00 μg/ml”.
In the case of `NC(=O)N1c2ccccc2C2OC2c2ccccc21` (centres unmarked) [CBZ-E, carbamazepine-10,11-epoxide], the “% Cross-reactivity” value in data set [1] is reported as 68.30%. For the same compound, in data set [1], the IC50 stood at 3.125 ng/mL (≈ 0.0124 µM). Also, the Cross-reactivity result is listed as “≦83.0%” in data set [7], 14.0% in data set [8], 21.8% in data set [4] and 7.4% in data set [5].
As to `CNCCCN1c2ccccc2CCc2ccccc21` [Desipramine], the Cross-reactivity entry in data set [7] is given as “≦540.0%”.
As to `CN1C(=O)CN=C(c2ccccc2)c2cc(Cl)ccc21` [Diazepam], the Cross-reactivity in data set [5] is on record as 4.8%.
`NC(=O)N1c2ccccc2CC(O)c2ccccc21` (centres unmarked) [Hapten 10-OH-CBZ, 10,11-dihydro-10-hydroxycarbazepine]: the “% Cross-reactivity” value in data set [1] is 67.40%. Moreover, the IC50 in data set [1] is 3.167 ng/mL (≈ 0.0125 µM). In addition, the values for the Cross-reactivity in data set [8] and in data set [3] were 1.2% and “negligible”, respectively.
For `CN(C)CCCN1c2ccccc2CCc2ccccc21` [Imipramine, imipramine], in data set [1], the “% Cross-reactivity” value is reported as <<1.10% and the IC50 is on record as >>200 ng/ml. Further, in data set [5], the Cross-reactivity is given as 5.6%.
With `CNCCC=C1c2ccccc2CCc2ccccc21` [Nortryptyline], the Cross-reactivity in data set [4] is 5.2%; in data set [5], 17.2%.
Consider `NC(=O)N1c2ccccc2CC(=O)c2ccccc21` [Oxcarbazepine, oxcarbazepine], for which, in data set [1], the “% Cross-reactivity” value turned out to be 299.00% and the IC50 was 0.714 ng/mL (≈ 0.00283 µM). In addition, the Cross-reactivity in data set [8] is reported as 1.0%. Further, the Cross-reactivity result in data set [3] is “negligible”.
Turning to `c1ccc2c(c1)Nc1ccccc1S2` [Phenothiazine], the Cross-reactivity in data set [5] is 8.6%.
